pIC50: −log10 of the molar value. Values joined by “and” are separate entries in the source; they are usually repeats but may differ in a detail not shown here. Identical values can stand only once.
Tested on: PC-3 multi-cell spheroids, viability
Assay: Anticancer human tumor PC-3 cell line growth inhibition [IpAb];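 also: spheroids exposed to compounds for 7 days before readout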;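 as to viability, T/C: 100% = DMSO vehicle control wells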
Settings: for viability, T/C: stronger effect = lower value; active = viability on the fitted dose curve at most 10% of control; inactive = the rest
Method in brief: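 Combinations with ipatasertib or abemaciclib were tested on tumour spheroids holding HUVEC (25%) and MSC (15%) alongside 60% malignant cells. Top concentration was at or near clinical Cmax (10 microM if undefined), descending in half-log steps.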

Cn1ncnc1[C@H]1c2n[nH]c(=O)c3cc(F)cc(c23)N[C@@H]1c1ccc(F)cc1 + CCN1CCN(Cc2ccc(Nc3ncc(F)c(-c4cc(F)c5nc(C)n(C(C)C)c5c4)n3)nc2)CC1
7.55: pIC50 (curve of first compound, second compound 0.316 µM)
8.04: pIC50 (curve of first compound, second compound 0.01 µM)
8.29: pIC50 (curve of first compound, second compound 1 µM)
9.10: pIC50 (curve of first compound, second compound 0.1 µM)
8.65: pIC50 (curve of first compound, second compound 0.0316 µM)
inactive: viability, T/C (second compound 0.01 µM, first compound 0.000316 µM) 82% | viability, T/C (second compound 0.01 µM, first compound 0.001 µM) 61.4% | viability, T/C (second compound 0.01 µM, first compound 0.00316 µM) 60.6% | viability, T/C (second compound 0.01 µM, first compound 0.01 µM) 47.1% | viability, T/C (second compound 0.01 µM, first compound 0.0316 µM) 46% | viability, T/C (second compound 0.01 µM, first compound 0.1 µM) 44.3% | viability, T/C (second compound 0.0316 µM, first compound 0.000316 µM) 61.5% | viability, T/C (second compound 0.0316 µM, first compound 0.001 µM) 50.8% | viability, T/C (second compound 0.0316 µM, first compound 0.00316 µM) 47.3% | viability, T/C (second compound 0.0316 µM, first compound 0.01 µM) 49.3% | viability, T/C (second compound 0.0316 µM, first compound 0.0316 µM) 48% | viability, T/C (second compound 0.0316 µM, first compound 0.1 µM) 39% | viability, T/C (second compound 0.1 µM, first compound 0.000316 µM) 48.2% | viability, T/C (second compound 0.1 µM, first compound 0.001 µM) 50.3% | viability, T/C (second compound 0.1 µM, first compound 0.00316 µM) 52.1% | viability, T/C (second compound 0.1 µM, first compound 0.01 µM) 48.6% | viability, T/C (second compound 0.1 µM, first compound 0.0316 µM) 44% | viability, T/C (second compound 0.1 µM, first compound 0.1 µM) 42.7% | viability, T/C (second compound 0.316 µM, first compound 0.000316 µM) 59.6% | viability, T/C (second compound 0.316 µM, first compound 0.001 µM) 58.2% | viability, T/C (second compound 0.316 µM, first compound 0.00316 µM) 64% | viability, T/C (second compound 0.316 µM, first compound 0.01 µM) 54.5% | viability, T/C (second compound 0.316 µM, first compound 0.0316 µM) 47.6% | viability, T/C (second compound 0.316 µM, first compound 0.1 µM) 37.8% | viability, T/C (second compound 1 µM, first compound 0.000316 µM) 61% | viability, T/C (second compound 1 µM, first compound 0.001 µM) 48.8% | viability, T/C (second compound 1 µM, first compound 0.00316 µM) 46.5% | viability, T/C (second compound 1 µM, first compound 0.01 µM) 49.6% | viability, T/C (second compound 1 µM, first compound 0.0316 µM) 44.6% | viability, T/C (second compound 1 µM, first compound 0.1 µM) 29.4%

C=CCn1c(=O)c2cnc(Nc3ccc(N4CCN(C)CC4)cc3)nc2n1-c1cccc(C(C)(C)O)n1
inactive: viability, T/C (compound 0.0316 µM) 102% and 104% | viability, T/C (compound 0.1 µM) 94% and 92.4% | viability, T/C (compound 0.316 µM) 68.1% and 67.3% | viability, T/C (compound 1 µM) 23.1% and 31.4% | viability, T/C (compound 3.16 µM) 26.6% and 22.3% | viability, T/C (compound 10 µM) 26.4% and 23.9%
6.29 and 6.26: pIC50 (curve of compound)
